Experimental data as given in patent US12194027B2, “Small molecule inhibitors of GPCR GPR68 and related receptors for treating cancer, glioblastoma, and other indications” (UNIVERSITY OF MARYLAND, BALTIMORE, priority 2019, dated 2025).

Tests used:
[1] = test system: U138 glioblastoma cell line; test: 2D cell viability (cell titer blue), U138; type: cell-based; details: U138, 72 hours
Description: (§1) Temozolomide is the standard of care for glioblastoma but only works on 30% of patients. Temozolomide sensitive U87 (FIG. 17A) and Temozolomide insensitive U138 (FIG. 17B) glioblastoma cell lines were plated in 96-well plates and exposed to increasing doses of either Temozolomide or OGM2. The viability of cells was assayed using cell titer blue after 72 hours, and data was normalized to DMSO vehicle control. See results in FIG. 17.

WM115 cells = test: agarose drop assay (3D model of melanoma extravasation); type: cell-based, human; details: 5 μM, 5 days
Description: WM115 cells were trypsinized and resuspended at 100,000 cells per mL in low melt agarose. A 10 μl drop of the cell mixture was added to 12-well plate. After solidifying Normal culture media was added with either DMSO 0.5% or OGM 5 μM. The area around the agarose drop was visualized manually with light microscopy. The cells were incubated for 5 days and visualized. Cells outside of the agarose drop were visualized and quantitated.
FIG. 8A is a schematic of the agarose drop assay. WM115 cells were mixed into a low melt agarose solution and single 10 μL drops were seeded onto cell culture plates. After solidifying, media containing OGM (5 μM) or CTL (DMSO […]) was added and wells were observed 5 days later. Immediately after media addition no cells are on the plate outside of the agarose gel in CTL or OGM. Five days after seeding cells are observed outside of the gel (Black arrows) in CTL but not in OGM. […] Quantification on the number of cells that escaped from an average of 5 gel drop replicates. FIG. 8B through FIG. 8F show the cells after media addition. No cells are on the plate outside of the agarose gel in CTL or OGM. Five days after seeding, cells are observed outside of the gel (arrows) in CTL but not in OGM.

zebrafish embryo [2] = test: zebrafish embryo phenotype (pigmentation, morphology); type: in vivo
WM115 melanoma cell line = test: scratch assay for migration, WM115; type: cell-based, human; details: OGM 5 μM, EIPA 10 μM, 20 hours
Description: (§2) Cells were grown to confluence and the cells were denuded with a P200 tip. A medium change was done to add fresh medium, remove loose cells and add compounds OGM (5 μM) and EIPA (10 μM). The area of the scratch was observed 20 hours later.
(§3) Since there are numerous parallels are found between neural crest cells and cancer during migration, we examined whether OGM could inhibit the migration of cells in human melanoma cell lines (Oppitz et al., 2007; Schriek et al., 2005; Sinnberg et al., 2018). […] A2058, MeWo and WM115 cells were grown to confluence and a stripe of cells were denuded with a p200 pipette tip “scratch” and rinsed with PBS. Cells were treated with OGM or EIPA, or DMSO and incubated in low serum media. Imaging was done at 30 minutes after “scratch” and then 20 hours afterwards. Areas were then measured and normalized to the initial area.
(§4) Previous studies with the MV3 melanoma cell line have shown that disruption of proton efflux with EIPA inhibition of NHE1 can also reduce melanoma motility (Ludwig et al., 2013; Schneider et al., 2009; Stock et al., 2007, 2005; Stüwe et al., 2007). […] Although the expression of GPR68 and other proton-sensing receptors have been characterized in various skin cancers (Merkel cell carcinoma, dermatofibrosarcoma protuberans, atypical fibroxanthoma, and pleomorphic dermal sarcoma), expression in melanoma cell lines has not investigated (Nassios et al., 2019).

[3] = test system: U87 glioblastoma cell line; test: 2D cell viability (cell titer blue), U87; type: cell-based; details: U87, 72 hours
Description: as §1

[4] = test system: U87 glioblastoma cell line; test: 3D tumor spheroid growth, U87; type: cell-based; details: U87, 5 days of treatment
Description: (§5) Tumor spheroid cultures are a more physiological model of tumor growth than typical 2D cell culture. Temozolomide sensitive U87 (FIG. 18A) and Temozolomide insensitive U138 (FIG. 18B) glioblastoma cell lines were plated in low attachment round bottom 96-well plates and allowed to form tumor spheroids for 3 days (T0). At T0, spheroids were imaged using Lionheart™ (HCS) High-Content Imaging Systems (Biotek™) and then were exposed to increasing doses of either Temozolomide or OGM2. After 5 days of treatment the spheroids were imaged again (T5). The size (area) of the spheroids after 5 days of treatment was quantified, and the average size of the spheroids at T0 is depicted in red.

158 GPCRs = test: Millipore GPCR profiling, agonist and antagonist activity; type: cell-based; details: 10 μM
GPR68-GFP = GPR68-GFP (Homo sapiens (Human), UniProt Q15743); test: SRE-luciferase assay, GPR68-GFP transfected HEK293T; type: cell-based; details: 10 μM
Description: (§6) 12-well plates of cells were transfected with 1 μg DNA using Lipofectamine 3000 with sre:luciferase and either GFP, GPR68-GFP or 336X-GFP. After 3 days, these cells were then lysed, and cell extracts were subjected to Steady-Glo luciferase assay (Promega™) according to the manufacturer's instructions. The results were normalized to cell titer, as determined using Cell Titer-Glo luminescence assay (Promega™).
(§7) Loss of internalization can indicate loss of activity or loss of the ability to internalize through beta-arrestin. […] Compared to GFP controls, GPR68-GFP and 336X-GFP transfected cells had higher levels of activity. (n=3 biological replicates done in triplicate). Furthermore, the activity of the truncation variant was still inhibited by OGM. […]

336X-GFP = 336X-GFP (Homo sapiens (Human), UniProt Q15743); test: SRE-luciferase assay, 336X-GFP truncation variant transfected HEK293T; type: cell-based; details: 10 μM
Description: as §6
A deletion between amino acid 336 and the beginning of GFP was generated from the MCSV:GPR68-GFP plasmid using the Q5 mutagenesis kit (NEB).
as §7

MeWo melanoma cell line = test: scratch assay for migration, MeWo; type: cell-based, human; details: OGM 5 μM, EIPA 10 μM, 20 hours
Description: as §2, §3, §4

U87 cells = test: clonogenicity of U87 cells (crystal violet); type: cell-based; details: 0.1-2 uM, 12 days
Description: U87 cells were plated at 400 cells per well in a 6-well plate and on the next day were treated with increasing concentrations of OGM2 for 12 days. The doses were 0 uM (DMSO control) 0.1 μM 0.5 uM, 1 uM, 1.5 uM and 2 uM, as labelled. The plate was fixed with formalin and stained with crystal violet.

[5] = test system: U138 glioblastoma cell line; test: 3D tumor spheroid growth, U138; type: cell-based; details: U138, 5 days of treatment
Description: as §5

A2058 melanoma cell line = test: scratch assay for migration, A2058; type: cell-based, human; details: OGM 5 μM, EIPA 10 μM, 20 hours
Description: as §2, §3, §4

zebrafish embryo [6] = test: foxD3 in situ hybridization of neural crest progenitors; details: in vivo
Description: In situ hybridization was performed as previously described (Westerfield, 2000). Zebrafish foxD3 probes were synthesized as previously described (Stewart et al., 2006).
To identify if neural crest progenitors were perturbed by OGM, foxD3 staining was performed. This identified no difference. […] The views on the right show a magnification of the indicated area, with arrows showing positive staining along the dorsal ridge of the embryo.

Chain of GPR68-GFP (Q15743 whole entry): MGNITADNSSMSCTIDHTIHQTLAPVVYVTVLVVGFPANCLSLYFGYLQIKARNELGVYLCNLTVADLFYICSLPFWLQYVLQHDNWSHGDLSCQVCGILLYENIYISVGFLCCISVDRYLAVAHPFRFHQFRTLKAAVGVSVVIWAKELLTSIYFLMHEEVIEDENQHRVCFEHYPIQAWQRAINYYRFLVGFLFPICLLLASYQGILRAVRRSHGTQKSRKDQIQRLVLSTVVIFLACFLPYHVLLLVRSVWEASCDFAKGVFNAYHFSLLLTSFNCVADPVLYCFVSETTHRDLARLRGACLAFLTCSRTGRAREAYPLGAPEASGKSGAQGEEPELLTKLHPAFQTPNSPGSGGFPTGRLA
Chain of 336X-GFP (Q15743 1-335): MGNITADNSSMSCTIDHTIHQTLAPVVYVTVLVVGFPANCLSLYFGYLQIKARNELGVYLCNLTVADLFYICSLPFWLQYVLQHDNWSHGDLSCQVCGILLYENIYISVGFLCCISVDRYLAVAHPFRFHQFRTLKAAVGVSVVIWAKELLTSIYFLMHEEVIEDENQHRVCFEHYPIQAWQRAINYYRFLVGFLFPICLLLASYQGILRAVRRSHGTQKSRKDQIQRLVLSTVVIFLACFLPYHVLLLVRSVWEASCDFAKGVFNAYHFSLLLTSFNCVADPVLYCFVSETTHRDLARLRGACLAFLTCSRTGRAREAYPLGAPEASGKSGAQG

CCc1ccc2c(c1)C1(NN=C(c3cccc4ccccc34)S1)C(=O)N2 (stereo not drawn) [OGM, 5-ethyl-5′-naphthalen-1-ylspiro[1H-indole-3,2′-3H-1,3,4-thiadiazole]-2-one]
viability versus Temozolomide [1]: more effective than Temozolomide | migration out of agarose drop (WM115 cells): migrated significantly less | induced morphological phenotype (zebrafish embryo [2]; OGM 10 uM, 48 hours pf): induced ventral curvature, wavy notochord, shortened body axis, craniofacial defects, and loss of retinal iridophores | time window of pigmentation defect (zebrafish embryo [2]; temporal phenotypic analysis, treatment windows 0-36 hours pf): dependent on treatment during the 12 hours pf-18 hours pf time window | migration in scratch assay (WM115 melanoma cell line): inhibited migration | viability versus Temozolomide [3]: more effective than Temozolomide | spheroid size versus Temozolomide [4]: more effective than Temozolomide | agonist and antagonist activity against 158 GPCRs (158 GPCRs): Only GPR68, LPA1 and GPR14 (UT2R) showed significant activity | SRE-luciferase activity (GPR68-GFP): reduced the level of luciferase activity | SRE-luciferase activity (336X-GFP): reduced the level of luciferase activity | migration in scratch assay (MeWo melanoma cell line): inhibited migration | clonogenicity (U87 cells): Reduces Clonogenicity | spheroid size versus Temozolomide [5]: more effective than Temozolomide | migration in scratch assay (A2058 melanoma cell line): inhibited migration | foxD3 staining of neural crest progenitors (zebrafish embryo [6]): no difference
